Measured values published in ChEMBL document CHEMBL1143085, “Synthesis and in vitro antimycobacterial activity of B-ring modified diaryl ether InhA inhibitors” (Bioorg Med Chem Lett, 2008).
pIC50, pKi: −log10 of the molar value. Values after ≈ are worked out from the molar mass of the structure shown.

Assays:
[1] = test system: Mycobacterium tuberculosis; assay: Antimicrobial activity against Mycobacterium tuberculosis H37RV; type: functional
[2] = Partition coefficient, log P of the compound; type: physicochemical; settings: octanol/water
[3] = target: T1, Enoyl-[acyl-carrier-protein] reductase [NADH] (Mycobacterium tuberculosis, UniProt P9WGR1)
T1 sequence (P9WGR1 whole entry): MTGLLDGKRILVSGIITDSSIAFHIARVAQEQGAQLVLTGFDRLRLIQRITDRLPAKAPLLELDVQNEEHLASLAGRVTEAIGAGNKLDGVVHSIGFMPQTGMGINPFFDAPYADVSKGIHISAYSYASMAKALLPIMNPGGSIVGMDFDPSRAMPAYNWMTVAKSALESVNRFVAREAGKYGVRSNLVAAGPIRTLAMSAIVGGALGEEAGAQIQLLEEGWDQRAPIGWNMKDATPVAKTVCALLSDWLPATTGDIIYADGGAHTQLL
Description: Inhibition of Mycobacterium tuberculosis H37RV InhA

[4] = target: T1, Enoyl-[acyl-carrier-protein] reductase [NADH]; assay: Inhibition of 100 nM Mycobacterium tuberculosis H37RV InhA

SMILES	MIC90 [1] [µg/mL]	logP ([2]; read-out: LogP)	pKi [3]	pIC50 [4]	logP [2]
CCCCCCc1ccc(Oc2ncccn2)c(O)c1	100 (≈ 367 µM)	4.46	9.00		
CCCCCCc1ccc(Oc2cnccn2)c(O)c1	6.25 (≈ 22.9 µM)	4.76	9.00		
CCCCCCc1ccc(Oc2nc(OC)cc(OC)n2)c(O)c1	100 (≈ 301 µM)		9.00		
CCCCCCc1ccc(Oc2ccncc2)c(O)c1	3.13 (≈ 11.5 µM)	4.93	9.00		
CCCCCCc1ccc(Oc2ccc(NC(=O)c3ccno3)cc2)c(O)c1	> 200	5.15	9.00		
CCCCCCc1ccc(Oc2ccc(CN3CCN(C)CC3)cc2)c(O)c1	> 100		9.00		
CCCCCCc1ccc(Oc2ccc(NC(=O)C(=O)O)cc2)c(O)c1	> 200		9.00		
CCCCCCc1ccc(Oc2ccc(NC(C)=O)cc2)c(O)c1	50 (≈ 153 µM)		9.00		
CCCCCCc1ccc(Oc2cccc(NC(=O)C(=O)O)c2)c(O)c1	130 (≈ 364 µM)		9.00	6.24	
CCCCCCc1ccc(Oc2ccc(N)cc2)c(O)c1	12.5 (≈ 43.8 µM)	4.93			
CCCCCCc1ccc(Oc2ccccc2NC(C)=O)c(O)c1	> 200	5.28	9.00	5.81	
CCCCCCc1ccc(Oc2ccccc2[N+](=O)[O-])c(O)c1	12.5 (≈ 39.6 µM)		9.00		5.5
CCCCCCc1ccc(Oc2cccc([N+](=O)[O-])c2)c(O)c1	12.5 (≈ 39.6 µM)				
CCCCCCc1ccc(Oc2ccc([N+](=O)[O-])cc2)c(O)c1	25 (≈ 79.3 µM)		9.00	7.05	5.64
CCCCCCc1ccc(Oc2ccccc2N)c(O)c1	3.13 (≈ 11 µM)	5.27			
CCCCCCc1ccc(Oc2ccccn2)c(O)c1		5.06	9.00	4.94	
CCCCCCc1ccc(Oc2ccccc2)c(O)c1	2.1 (≈ 7.77 µM)	5.76	9.00		
CCCCCCc1ccc(Oc2cccc(NC(C)=O)c2)c(O)c1	100 (≈ 305 µM)		9.00	5.25	
CCCCCCc1ccc(Oc2cccc(N)c2)c(O)c1	100 (≈ 350 µM)		9.00		
CCCCCCc1ccc(Oc2cccc(NC(=O)c3ccno3)c2)c(O)c1	> 200	5.22	9.00	5.92	
CCCCCCc1ccc(Oc2cccnc2)c(O)c1	3.13 (≈ 11.5 µM)		9.00		
CCCCCCc1ccc(Oc2ccccc2NC(=O)C(=O)O)c(O)c1	100 (≈ 280 µM)		9.00	5.63	
CCCCCCc1ccc(Oc2ccccc2CN2CCN(C)CC2)c(O)c1			9.00		
CCCCCCc1ccc(Oc2ccccc2NC(=O)c2ccno2)c(O)c1	> 200	5.76	9.00		
CCCCCCc1ccc(Oc2ncccn2)c(OC)c1	75 (≈ 262 µM)		9.00		
